Experimental data from patent US8828724B2, “Method for preparing cells for engraftment” (Institut National de la Sante et de la Recherche Medicale …, priority 2007, dated 2014).
Peptide text beside a SMILES is read from it.

What was measured:
BM-MNC [1] = assay: Apoptosis evaluation via observation of nuclear morphology; assay type: cell-based, mouse; conditions: 100 μM, pre-treated or continued presence, 5 days of culture, FIG. 13
Protocol: BM-MNC were grown onto gelatin/vitronectin matrix for 5 days in EBM in the continued presence of TSP1 or the 4N1-1 and 4N1-2 peptides, or treated for the last 24 h only. […] Non adherent cells were eliminated and adherent cells fixed with PBS-PFA 4% followed by addition of DAPI (Di-aminidophenylindol, 0.01 mg/ml) that becomes fluorescent after integration between DNA bases. […] Experiments were repeated at least three times.
After observing increased BM-MNC adhesion following treatment with peptide 4N1-1, the inventors examined the extent of apoptosis triggered by peptide 4N1-1.

BM-MNC [2] = assay: Apoptosis evaluation via quantification of intact DNA content; assay type: cell-based; conditions: 50 μM for 10 or 120 min, culture up to 24 hours, FIG. 29
Protocol: BM-MNC were isolated and treated with 4N1-1 peptide for 10 or 120 min, washed with PBS and cultured in EBM onto gelatin/vitronectin matrix for up to 24 hours. Untreated fresh cells served as control for live cells. […] After treatment and culture, non adherent and adherent cells were harvested and analyzed separately, fixed with ice-cold ethanol 70% in PBS, and incubated for 45 min in PBS containing Triton X-100 (0.05%), propidium iodide (PI; 50 μg/ml) and RNase-A (100 μg/ml). PI becomes fluorescent after integration between DNA bases. […] Experiments were repeated three times.
The inventors examined the extent of apoptosis in BM-MNC treated with peptide 4N1-1 and 4N1-2, using a second method. BM-MNC were pre-treated with 4N1-1 or 4N1-2 (50 μM) for 10 or 120 min, and cultured in full EBM2 medium, with serum and growth factors for up to 24 hours, to allow potential apoptotic reactions to proceed (FIG. 29). […] After culture, adherent and non-adherent cells were harvested and analyzed separately.

BM-MNC [3] = assay: BM-MNC adhesion onto gelatin/vitronectin or fibrin gels for 30 min after pre-treatment; assay type: cell-based, mouse; conditions: 2 h pre-treatment
Protocol: Tibias, femurs and humerus of C57BL/6 male mice were carefully dissected, bone marrow was extracted and dissociated, and bone marrow mononuclear cells (BM-MNC) were separated by differential centrifugation on Ficoll gradients (Histopaque-1083, Sigma), (2,000 r.p.m, 25 min). BM-MNC were then washed with PBS and pelleted (2,000 r.p.m, 10 min).
(§1) To evaluate the effects of TSP1 or peptides derived from its carboxyterminal sequence, 4N1-1 and 4N1-2, on cell adhesion onto gelatin/vitronectin, fibrin gels or activated SVEC monolayers, 2.10^6/ml BM-MNC or PBMC, or 10^6/ml HUCB-EPC were pretreated for 2 h at 37° C. in an incubator with 5% CO2, in the presence of TSP1 ([…]), or the 4N1-1 or 4N1-2 peptides (100 μM), or control BSA (1%), or with mouse monoclonal anti-human CD47 IgG1 B6H12 (40 μg/ml), or matched control isotype mouse IgG1 (40 μg/ml), before PBS washes and culture for the specified length of time. For adhesion experiments, supernatants were removed, adherent cells were gently washed with PBS. The number of adherent cells per high power field was counted in 3 to 5 fields per well using an inverted phase-contrast microscope at high magnification (×400).
(§2) Mouse BM-MNC and HUCB-EPC adhesion was evaluated in vitro. The effects of purified or recombinant platelet proteins, or peptide agonists of the CD47/IAP receptor was characterized. Two main approaches were used: • 1. Pre-incubation of the cells with platelet proteins for 2 h before measuring their adhesion on gelatin/vitronectin control matrix or fibrin gels for 30 min. • 2. Cell adhesion on gelatin/vitronectin control matrix or fibrin gels for 16 h in the presence of platelet proteins in solution.

[4] = systemic injection of significant doses; cited from earlier work
HUCB-EPC = HUCB-EPC adhesion onto gelatin/vitronectin or fibrin gels for 15 min after pre-treatment; assay type: cell-based, Human; conditions: 2 h pre-treatment, 15 min adhesion, FIG. 8
Protocol: Human umbilical cord blood (30-50 ml) was collected in sterile tubes containing heparin (15 UI/ml, Sanofi) following standard protocols in agreement with Hôpital Lariboisiére and Inserm ethical guidelines. PBMC were isolated via Ficoll gradient centrifugation (Histopaque-1077, Dominique Dutscher). To eliminate mature endothelial cells, mononuclear cells were seeded (6.10^6 cells/ml) in culture dishes (100×20 mm) at 37° C. with 5% CO2 for 16 h. Adherent cells were eliminated. Non-adherent cells were cultured and differentiated into Human umbilical cord blood-derived endothelial progenitor cells (HUCB-EPC) in 6-well plates (10^7 cells/well) on collagen type 1 matrix (Coll1; 90 μg/ml, Sigma) in M199 growth medium (Gibco) complete with L-glutamine, HEPES buffer (25 mM; Eurobio), antibiotics and antimycotics (penicillin 10000 units/ml, streptomycin 10,000 μg/ml, fongizone 25 μg/ml) and 20% FCS (Dominique Dutscher), as well as 10 ng/ml VEGF (R&D Systems).
as §1

BM-MNC [5] = assay: BM-MNC adhesion onto interleukin-1β-pre-activated murine endothelial monolayers; assay type: cell-based, mouse; conditions: 2 h pre-treatment; TSP1 10 μg/ml, 4N1-1 100 μM; 30 min adhesion, FIG. 9
Protocol: SV40-transformed mouse lymph node endothelial cells (SVEC from ATCC), were grown in Dulbecco's Modified Eagle Medium (DMEM) supplemented with 20% FCS in 24 well plaques until they reached full confluency (7 days). SVEC monolayers were activated with 5 nM murine interleukin-1β (Calbiochem) for 2 h prior to cell-cell adhesion experiments.
as §1
BM-MNC were pre-treated for 2 h with recombinant or purified human TSP1 (10 μg/ml), or with peptide 4N1-1 (100 μM), and measured their adhesion after 30 min onto interleukin-1β-pre-activated murine endothelial monolayers. […]

BM-MNC [6] = assay: Endothelial differentiation of BM-MNC (Dil-Ac-LDL / BS1-lectin double labelling); assay type: cell-based, mouse; conditions: 2 h pre-treatment, 5 days culture, FIG. 12
Protocol: BM-MNC were cultured onto gelatin/vitronectin in EBM medium for 5 days. After eliminating non adherent cells, EPC were identified through double-labelling for two endothelial characteristics: incorporation of Dil-labelled acetylated low density lipoproteins (Dil-Ac-LDL; 1 μg/ml, BioHarbor Products; red fluorescence) and binding of FITC-labelled BS1-lectin (1 μg/ml, Sigma; green fluorescence). Double fluorescence allowed the microscopic identification and counting of EPC in 3 to 5 fields per well (400× magnification). Experiments were repeated at least three times, and results expressed as percentages of EPC.
Following the previous observation that TSP1 and peptide 4N1-1 stimulate BM-MNC adhesion in vitro, the inventors measured the endothelial differentiation of treated BM-MNC. BM-MNC were cultured for 5 days, following a 2 h pre-treatment with recombinant or purified TSP1, or with peptides 4N1-1, 4N1-2, or CSVTCG (a peptide derived from the TSP1 sequence). EPC-differentiated BM-MNC were identified by fluorescence microscopy after double-labelling for Dil-Ac-LDL incorporation and BS1 lectin binding.

BM-MNC [7] = assay: BM-MNC adhesion onto gelatin/vitronectin for 16 h with proteins in solution; assay type: cell-based, mouse; conditions: 16 h in presence of 100 μg/ml, FIG. 3
Protocol: as §2
BM-MNC were incubated for 16 h on gelatin/vitronectin matrix in the presence of PPP, recombinant TSP1 (100 μg/ml), or peptide 4N1-1 (100 μM) before adhesion was quantified through direct cell counts by phase-contrast microscopy. As reported in FIG. 3, TSP1 stimulated adhesion by over three fold compared to the gelatin/vitronectin control (+206.8%, p<0.05).

[8] = 30 min adhesion, gelatin/vitronectin, FIG. 26
[9] = BM-MNC, 30 min adhesion, FIG. 1

CSCC[C@H](NC(=O)[C@@H](NC(=O)[C@@H](NC(=O)[C@H](Cc1ccc(O)cc1)NC(=O)[C@H](Cc1ccccc1)NC(=O)[C@@H](N)CCCNC(=N)N)C(C)C)C(C)C)C(=O)N[C@@H](Cc1c[nH]c2ccccc12)C(=O)N[C@@H](CCCCN)C(=O)O [4N1-1]
apoptosis compared to BSA (BM-MNC [1]): did not stimulate apoptosis significantly

CSCC[C@H](NC(=O)[C@@H](NC(=O)[C@@H](NC(=O)[C@H](Cc1ccc(O)cc1)NC(=O)[C@H](Cc1ccccc1)NC(=O)[C@@H](N)CCCNC(=N)N)C(C)C)C(C)C)C(=O)O [4N1-2, RFYVVM, reference compound] (H-RFYVVM-OH)
apoptosis compared to BSA (BM-MNC [1]): did not stimulate apoptosis significantly
apoptosis compared to staurosporine or control, adherent and non-adherent cells (BM-MNC [2]): did not stimulate apoptosis significantly

CSVTCG (TSP-1 fragment) [reference compound]
inhibition of adhesion compared with BSA (BM-MNC [3]; 30 min adhesion, gelatin/vitronectin, FIG. 7): 21%

FIRGGMYEGKK (7NGG) [mutated 7N3, reference compound]
modulation of BM-MNC adhesion compared with BSA (BM-MNC [3]; [8]): no significant modulation

FIRVVMYEGKK (7N3 peptide)
modulation of BM-MNC adhesion compared with BSA (BM-MNC [3]; [8]): stimulated BM-MNC adhesion significantly

KRFYVVMWKK (4N1K peptide)
gross coagulation parameters [4]: does not modulate gross coagulation parameters
lethality [4]: not lethal

RFYGGMWK (4NGG) [mutated 4N1-1, reference compound]
modulation of BM-MNC adhesion compared with BSA (BM-MNC [3]; [8]): no significant modulation

TSP1: recombinant or purified Thrombospondin-1, not specified which at b144
stimulation of adhesion on fibrin compared with BSA (BM-MNC [3]; [9]): +74.0%
stimulation of adhesion onto gelatin/vitronectin compared with BSA (BM-MNC [3]; [9]): +160.6%

leptin: recombinant human leptin (Biovision)
modulation of BM-MNC adhesion compared with BSA (BM-MNC [3]; SDF1 100 ng/ml, EphB2-Fc 3 μg/ml, EBM2 50%, leptin 100 ng/ml, gelatin/vitronectin 30 min, FIG. 27): moderate increase

purified TSP1: Human purified Thrombospondin-1 prepared at Inserm Unit U553
stimulation of HUCB-EPC adhesion onto fibrin compared with BSA (HUCB-EPC): +33.3%
stimulation of HUCB-EPC adhesion onto gelatin-vitronectin compared with BSA (HUCB-EPC): +52.5%
stimulation of adhesion onto endothelial monolayers compared with BSA (BM-MNC [5]): +40.5%
stimulation of endothelial differentiation vs BSA (BM-MNC [6]): +28.9%
stimulation of BM-MNC adhesion onto gelatin/vitronectin compared with BSA (BM-MNC [3]; 30 min adhesion, FIG. 7): +143.8%

recombinant TSP1: Human recombinant Thrombospondin-1 produced by EMP-Genetech
stimulation of adhesion compared to the gelatin/vitronectin control (BM-MNC [7]): +206.8%
stimulation of HUCB-EPC adhesion onto fibrin compared with BSA (HUCB-EPC): +37.6%
stimulation of HUCB-EPC adhesion onto gelatin-vitronectin compared with BSA (HUCB-EPC): +106.3%
stimulation of adhesion onto endothelial monolayers compared with BSA (BM-MNC [5]): +34.2%
stimulation of endothelial differentiation vs BSA (BM-MNC [6]): +28.0%
concentration at which maximal stimulation of adhesion was reached (BM-MNC [3]; 30 min adhesion, FIG. 2): 20 µg/mL
concentration from which adhesion onto gelatin/vitronectin was stimulated significantly (BM-MNC [3]; 30 min adhesion, FIG. 2): ≥ 5 µg/mL
stimulation of BM-MNC adhesion onto gelatin/vitronectin compared with BSA (BM-MNC [3]; 30 min adhesion, FIG. 7): +65.6%
maximal stimulation of adhesion onto gelatin/vitronectin compared with BSA (BM-MNC [3]; at 20 μg/ml, FIG. 2): +179.3%
